32 compounds from patent US10815222B2, “Compounds for use in the treatment of kinetoplastid infection” (C.N.C.C.S. S.c.a.r.l. COLLEZIONE NAZIONALE DEI COMPOSTI …, priority 2016, dated 2020) can be followed below.

The subject of one assay is Bloodstream form of Trypanosoma brucei, strain Lister 427. The assay is described as follows: Trypanosoma brucei growth inhibition assay (CellTiter-Glo, 24 h). Type of assay: cell-based. Particulars: Trypanosoma brucei; T. Brucei Growth Inibition Assay, class symbols; read-out: T. Brucei GI EC50. The essentials: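 Bloodstream-form T. brucei Lister 427, 1500 parasites per well in supplemented IMDM with 10% FBS, were exposed to compound (DMSO ≤0.25% final) for 24 h at 37 °C. Viability was measured by CellTiter-Glo luminescence.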
Regarding `CCC(=O)CCCN1CCN(C(=O)Cc2c[nH]c3ccccc23)C(c2ncc(-c3ccc4ccccc4c3)[nH]2)C1` (centres unmarked), the EC50 lay in the range of 100 to 500 nM.
Still for that read-out and setting: the figure for `CCC(=O)CCCN1CCN(C(=O)Cc2c(C)[nH]c3ccc(OC)cc23)C(c2ncc(-c3cc4ccccc4nc3OC)[nH]2)C1` (centres unmarked) [6-(4-(2-(5-methoxy-2-methyl-1H-indol-3-yl)acetyl)-3-(5-(2-methoxyquinolin-3-yl)-1H-imidazol-2-yl)piperazin-1-yl)hexan-3-one] is less than 100 nM; for `COc1ccc2nc(C(F)(F)F)n(CC(=O)N3CC[C@H](NCc4cnoc4)C[C@H]3c3ncc(-c4cc5ccccc5nc4OC)[nH]3)c2c1` [1-((2S,4S)-4-((isoxazol-4-ylmethyl)amino)-2-(5-(2-methoxyquinolin-3-yl)-1H-imidazol-2-yl)piperidin-1-yl)-2-(6-methoxy-2-(trifluoromethyl)-1H-benzo[d]imidazol-1-yl)ethan-1-one] it is less than 100 nM; for `COc1ccc2c(c1)nc(C(F)(F)F)n2CC(=O)N1CCN(CC2CCOC2)C[C@H]1c1ncc(-c2cc3ccccc3nc2OC)[nH]1` (stereo partly drawn) [2-(5-methoxy-2-(trifluoromethyl)-1H-benzo[d]imidazol-1-yl)-1-((2S)-2-(5-(2-methoxyquinolin-3-yl)-1H-imidazol-2-yl)-4-((tetrahydrofuran-3-yl)methyl)piperazin-1-yl)ethan-1-one] it is less than 100 nM.
On to `COc1nc2ccccc2cc1-c1cnc(C2CN(CC(F)F)CCN2C(=O)Cc2ccccc2)[nH]1` (centres unmarked), for which the half-maximal effective concentration (EC50) is 1010 to 5000 nM.
Turning to `O=C(Cc1n[nH]c2ccccc12)N1CCN(CC2CC2)CC1c1ncc(-c2ccc3ccccc3c2)[nH]1` (centres unmarked), the concentration for a half-maximal effect (EC50) was 1010 to 5000 nM.
As to `COc1ccc2nc(C(F)(F)F)n(CC(=O)N3CCN(C(C)C)CCC3c3ncc(-c4cc5ccccc5nc4OC)[nH]3)c2c1` (centres unmarked), the 50% effective concentration (EC50) was in the range of 100 to 500 nM.
For the compound `COc1ccc2nc(C(F)(F)F)n(CC(=O)N3CCN(Cc4nccs4)C[C@H]3c3nnc(-c4cc5ccccc5nc4OC)[nH]3)c2c1` [(S)-2-(6-methoxy-2-(trifluoromethyl)-1H-benzo[d]imidazol-1-yl)-1-(2-(5-(2-methoxyquinolin-3-yl)-4H-1,2,4-triazol-3-yl)-4-(thiazol-2-ylmethyl)piperazin-1-yl)ethan-1-one], the half-maximal effective concentration (EC50) is less than 100 nM.
Consider `COc1nc2ccccc2cc1-c1cnc(C2COCCN2C(=O)Cn2nnc3ccccc32)[nH]1` (centres unmarked), for which the concentration giving a half-maximal response (EC50) lay within 1010 to 5000 nM.
For `COc1nc2ccccc2cc1-c1cnc(C2CCN(Cc3ccn(C)n3)CCN2C(=O)Cn2c(C(F)(F)F)nc3ccccc32)[nH]1` (centres unmarked) [1-(7-(5-(2-methoxyquinolin-3-yl)-1H-imidazol-2-yl)-4-((1-methyl-1H-pyrazol-3-yl)methyl)-1,4-diazepan-1-yl)-2-(2-(trifluoromethyl)-1H-benzo[d]imidazol-1-yl)ethan-1-one], the EC50 was less than 100 nM.
`COc1ccc2nc(C)n(CC(=O)N3CC[C@H](N(C)Cc4cnccn4)C[C@H]3c3ncc(-c4cc5ccccc5nc4OC)[nH]3)c2c1`: the EC50 is 100 to 500 nM.
As to `COc1nc2ccccc2cc1-c1cnc([C@@H]2CN(Cc3ccccc3F)CCN2C(=O)Cn2c(C(F)(F)F)nc3ccccc32)[nH]1`, the EC50 lay within 100 to 500 nM.
As for `COc1ccc2[nH]cc(CC(=O)N3CCN(CC4CCOC4)CC3c3ncc(-c4cc5ccccc5nc4OC)[nH]3)c2c1` (centres unmarked), the EC50 was 100 to 500 nM.
Consider `COc1nc2ccccc2cc1-c1cnc(C2CN(CC3CCOC3)CCN2C(=O)c2ccc3ncccc3c2)[nH]1` (centres unmarked), for which the EC50 fell in the range of 1010 to 5000 nM.
`COc1ccc2nc(C)n(CC(=O)N3CCN(CC4COC4)CCC3c3ncc(-c4cc5ccccc5nc4OC)[nH]3)c2c1` (centres unmarked): the half-maximal effective concentration (EC50) lay within 510 to 1000 nM.
For the compound `COc1nc2ccccc2cc1-c1cnc([C@@H]2CN(Cc3ccccn3)CCN2C(=O)Cn2c(C(F)(F)F)nc3ccccc32)[nH]1` [(S)-1-(2-(5-(2-methoxyquinolin-3-yl)-1H-imidazol-2-yl)-4-(pyridin-2-ylmethyl)piperazin-1-yl)-2-(2-(trifluoromethyl)-1H-benzo[d]imidazol-1-yl)ethan-1-one], the EC50 was less than 100 nM.
For the compound `COc1ccc2cc(C)n(CC(=O)N3CCN(CC4CCOC4)C[C@H]3c3ncc(-c4cc5ccccc5nc4OC)[nH]3)c2c1` (stereo partly drawn) [2-(6-methoxy-2-methyl-1H-indol-1-yl)-1-((2S)-2-(5-(2-methoxyquinolin-3-yl)-1H-imidazol-2-yl)-4-((tetrahydrofuran-3-yl)methyl)piperazin-1-yl)ethan-1-one], the EC50 was less than 100 nM.
For `COc1ccc2nc(C(F)(F)F)n(CC(=O)N3C[C@H](NC4CCOC4)CC[C@H]3c3ncc(-c4cc5ccccc5nc4OC)[nH]3)c2c1` (stereo partly drawn) [2-(6-methoxy-2-(trifluoromethyl)-1H-benzo[d]imidazol-1-yl)-1-((2S,5R)-2-(5-(2-methoxyquinolin-3-yl)-1H-imidazol-2-yl)-5-((tetrahydrofuran-3-yl)amino)piperidin-1-yl)ethan-1-one], the EC50 was less than 100 nM.
As to `COc1ccc2nc(C(F)(F)F)n(CC(=O)N3CC[C@H](NCc4cnccn4)C[C@H]3c3ncc(-c4cc5ccccc5nc4OC)[nH]3)c2c1` [2-(6-methoxy-2-(trifluoromethyl)-1H-benzo[d]imidazol-1-yl)-1-((2S,4S)-2-(5-(2-methoxyquinolin-3-yl)-1H-imidazol-2-yl)-4-((pyrazin-2-ylmethyl)amino)piperidin-1-yl)ethan-1-one], the EC50 was less than 100 nM.
`COc1nc2ccccc2cc1-c1cnc(C2COCCN2C(=O)Cn2nc(C)c3ccccc3c2=O)[nH]1` (centres unmarked): the EC50 was 1010 to 5000 nM.
On the same count and under the same terms, the figure for `COc1nc2ccccc2cc1-c1cnc(C2CN(CC3CCOC3)CCN2C(=O)c2ccc(C3CCCO3)s2)[nH]1` (centres unmarked) is 1010 to 5000 nM.
With `COc1ccc2nc(C(F)(F)F)n(CC(=O)N3CC[C@H](NCCO)C[C@H]3c3ncc(-c4cc5ccccc5nc4OC)[nH]3)c2c1` [1-((2S,4S)-4-((2-hydroxyethyl)amino)-2-(5-(2-methoxyquinolin-3-yl)-1H-imidazol-2-yl)piperidin-1-yl)-2-(6-methoxy-2-(trifluoromethyl)-1H-benzo[d]imidazol-1-yl)ethan-1-one], the EC50 is less than 100 nM.
On to `COc1ccc2nc(C(F)(F)F)n(CC(=O)N3CC[C@H](NCC4COC4)C[C@H]3c3ncc(-c4cc5ccccc5nc4OC)[nH]3)c2c1` [2-(6-methoxy-2-(trifluoromethyl)-1H-benzo[d]imidazol-1-yl)-1-((2S,4S)-2-(5-(2-methoxyquinolin-3-yl)-1H-imidazol-2-yl)-4-((oxetan-3-ylmethyl)amino)piperidin-1-yl)ethan-1-one], for which the 50% effective concentration (EC50) was less than 100 nM.
In the case of `COc1ccc2nc(C(F)(F)F)n(CC(=O)N3CCN(Cc4ccccn4)CCC3c3ncc(-c4cc5ccccc5nc4OC)[nH]3)c2c1` (centres unmarked) [2-(6-methoxy-2-(trifluoromethyl)-1H-benzo[d]imidazol-1-yl)-1-(7-(5-(2-methoxyquinolin-3-yl)-1H-imidazol-2-yl)-4-(pyridin-2-ylmethyl)-1,4-diazepan-1-yl)ethan-1-one], the concentration giving a half-maximal response (EC50) was less than 100 nM.
As for `COc1nc2ccccc2cc1-c1cnc(C2CN(Cc3cocn3)CCN2C(=O)Cc2c(C)[nH]c3ccc(F)cc23)[nH]1` (centres unmarked), the EC50 lay in the range of 100 to 500 nM.
As to `COc1nc2ccccc2cc1-c1cnc([C@@H]2CN(Cc3cscn3)CCN2C(=O)Cn2c(C(F)(F)F)nc3ccccc32)[nH]1` [(S)-1-(2-(5-(2-methoxyquinolin-3-yl)-1H-imidazol-2-yl)-4-(thiazol-4-ylmethyl)piperazin-1-yl)-2-(2-(trifluoromethyl)-1H-benzo[d]imidazol-1-yl)ethan-1-one], the EC50 is less than 100 nM.
As for `COc1nc2ccccc2cc1-c1cnc([C@@H]2CCN(Cc3ccn(C)n3)CCN2C(=O)[C@@](OC)(c2ccccc2)C(F)(F)F)[nH]1`, the EC50 was 1010 to 5000 nM.
Turning to `Cn1cc(CC(=O)N2CCN(CC3CCOC3)CC2c2ncc(-c3ccc4ccccc4c3)[nH]2)c2ccccc21` (centres unmarked), the EC50 was 100 to 500 nM.
For the compound `COc1nc2ccccc2cc1-c1cnc([C@@H]2CN(Cc3cccnc3)CCN2C(=O)Cn2c(C(F)(F)F)nc3ccccc32)[nH]1` [(S)-1-(2-(5-(2-methoxyquinolin-3-yl)-1H-imidazol-2-yl)-4-(pyridin-3-ylmethyl)piperazin-1-yl)-2-(2-(trifluoromethyl)-1H-benzo[d]imidazol-1-yl)ethan-1-one], the EC50 was less than 100 nM.
With `COc1nc2ccccc2cc1-c1cnc([C@@H]2CN(C3CCN(C(C)=O)CC3)CCN2C(=O)Cn2c(C(F)(F)F)nc3ccccc32)[nH]1` [(S)-1-(4-(1-acetylpiperidin-4-yl)-2-(5-(2-methoxyquinolin-3-yl)-1H-imidazol-2-yl)piperazin-1-yl)-2-(2-(trifluoromethyl)-1H-benzo[d]imidazol-1-yl)ethan-1-one], the EC50 is less than 100 nM.
On the same count and under the same terms, the figure for `COc1nc2ccccc2cc1-c1cnc(C2CN(C3CCN(C)CC3)CCN2C(=O)Cc2c(C)[nH]c3ccc(F)cc23)[nH]1` (centres unmarked) is 510 to 1000 nM.
Same read-out and setting: then `COc1ccc2nc(C)n(CC(=O)N3CCN(Cc4cnccn4)CCC3c3ncc(-c4cc5ccccc5nc4OC)[nH]3)c2c1` (centres unmarked), with 100 to 500 nM.

The same assay, now with this note: Trypanosoma brucei; Table 3; read-out: T. brucei GI EC50.
As to `CCC(=O)CCCN1CCN(C(=O)Cc2c[nH]c3ccccc23)C(c2ncc(-c3ccc4ccccc4c3)[nH]2)C1` (centres unmarked), the EC50 is 489 nM.
Turning to `CCC(=O)CCCN1CCN(C(=O)Cc2c(C)[nH]c3ccc(OC)cc23)C(c2ncc(-c3cc4ccccc4nc3OC)[nH]2)C1` (centres unmarked) [6-(4-(2-(5-methoxy-2-methyl-1H-indol-3-yl)acetyl)-3-(5-(2-methoxyquinolin-3-yl)-1H-imidazol-2-yl)piperazin-1-yl)hexan-3-one], the concentration giving a half-maximal response (EC50) is 34.2 nM.

A further assay relates to HeLa cells. Description: HeLa cytotoxicity assay (CellTiter Glo, 72 h). The note with it: Homo sapiens, read-out: Cell Proliferation Hela IC50. Type of assay: cell-based. On the procedure:
(§1) HeLa cells (ATCC® CCL2™) in DMEM (Dulbecco Modified Eagle's Medium) without phenol red, Thermo, 11880, USA+10% FBS+1× PenStrep+1× Gln or HUVEC cells (ATCC® CRL1730™) in EBM-2 (Endothelial Growth Basal Medium, Lonza, CC3156)+EGM-2 SingleQuotsTMSupplements and Growth Factors (Lonza, CC4176)+1× Penicyllin-Streptomycin (PenStrep, ThermoFisher)+1× Glutamine, are plated in a 384 well plate (Thermo, 4334-11, USA) to a density of 2000 cells per well and let recover for four hours at 37° C., 5% CO2 in a humidified atmosphere. After the recovery, compounds are transferred to assay plates as per compound preparation method. Assay plates are then incubated at 37° C., 5% CO2 in a humidified atmosphere for 72 hours. Cell viability is measured by the CellTiter Glo (Promega, G8080, USA) as per manufacturer instruction.
(ATP-based viability assays read luminescence as a measure of living cells.)
For the compound `CCC(=O)CCCN1CCN(C(=O)Cc2c[nH]c3ccccc23)C(c2ncc(-c3ccc4ccccc4c3)[nH]2)C1` (centres unmarked), the IC50 was not below 25000 nM.
`CCC(=O)CCCN1CCN(C(=O)Cc2c(C)[nH]c3ccc(OC)cc23)C(c2ncc(-c3cc4ccccc4nc3OC)[nH]2)C1` (centres unmarked) [6-(4-(2-(5-methoxy-2-methyl-1H-indol-3-yl)acetyl)-3-(5-(2-methoxyquinolin-3-yl)-1H-imidazol-2-yl)piperazin-1-yl)hexan-3-one]: the IC50 was not below 25000 nM.

The test system of a further assay is HUVEC cells. The assay is described as follows: HUVEC cytotoxicity assay (CellTiter Glo, 72 h). The assay is classed as cell-based. Particulars: Homo sapiens, read-out: Cell Proliferation HUVEC IC50. The protocol: as §1
As to `CCC(=O)CCCN1CCN(C(=O)Cc2c[nH]c3ccccc23)C(c2ncc(-c3ccc4ccccc4c3)[nH]2)C1` (centres unmarked), the IC50 was determined as 9970 nM.
As to `CCC(=O)CCCN1CCN(C(=O)Cc2c(C)[nH]c3ccc(OC)cc23)C(c2ncc(-c3cc4ccccc4nc3OC)[nH]2)C1` (centres unmarked) [6-(4-(2-(5-methoxy-2-methyl-1H-indol-3-yl)acetyl)-3-(5-(2-methoxyquinolin-3-yl)-1H-imidazol-2-yl)piperazin-1-yl)hexan-3-one], the IC50 was 21400 nM.

By EC50 is commonly meant the concentration giving half of the maximal effect.
